# According to US20060252710A1, “6-11 Bridged oxime erythromycin derivatives” (priority 2005, published 2006):
# Where two headings read alike, the source gives them in different places.
# Experiments:
# Assay in all cases: MIC by micro-dilution method
# Type in all cases: cell-based
# S. aureus 33591 = conditions: Staphylococcus aureus
# Experimental: (§1) Antibacterial activity studies may be carried out using suitable assays as are known in the art. Susceptibility tests can be used to quantitatively measure the in vitro activity of an antimicrobial agent against a given bacterial isolate. Compounds are tested for in vitro antibacterial activity by a micro-dilution method. Minimal Inhibitory Concentration (MIC) is determined in 96 well microtiter plates utilizing the appropriate Mueller Hinton Broth medium (CAMHB) for the observed bacterial isolates. Antimicrobial agents are serially diluted (2-fold) in DMSO to produce a concentration range from about 64 μg/ml to about 0.03 μg/ml. The diluted compounds (2 μl/well) are then transferred into sterile, uninoculated CAMHB (0.2 mL) by use of a 96 fixed tip-pipeting station. The inoculum for each bacterial strain is standardized to 5×10^5 CFU/mL by optical comparison to a 0.5 McFarland turbidity standard. The plates are inoculated with 10 μI/well of adjusted bacterial inoculum. The 96 well plates are covered and incubated at 35+/−2° C. for 24 hours in ambient air environment. Following incubation, plate wells are visually examined by Optical Density measurement for the presence of growth (turbidity). The lowest concentration of an antimicrobial agent at which no visible growth occurs is defined as the MIC.
# (§2) All in vitro testing follows the guidelines described in the Approved Standards M7-A4 protocol, published by the National Committee for Clinical Laboratory Standards (NCCLS).
# (§3) The values in the table are minimum inhibition concentration (MIC) and are expressed as ug/mL. Assays for MIC are described above.
# S. pneumoniae 700906 = conditions: Streptococcus pneumoniae
# Experimental: as §1, §2, §3
# H. influenzae 33929 = conditions: Haemophilus influenzae
# Experimental: as §1, §2, §3
# S. pneumoniae 7701 = conditions: Streptococcus pneumoniae
# Experimental: as §1, §2, §3
# S. aureus 27660 = conditions: Staphylococcus aureus
# Experimental: as §1, §2, §3
# S. aureus 29213 = conditions: Staphylococcus aureus
# Experimental: as §1, §2, §3
# S. pyogenes 2912 = conditions: Streptococcus pyogenes
# Experimental: as §1, §2, §3
# S. pyogenes 1323 = conditions: Streptococcus pyogenes
# Experimental: as §1, §2, §3
# [1] = Table IV, species from U.S. Pat. No. 6,878,691 and US 2004/0053861, read-out: minimum inhibition concentration (MIC) S. aureus 33591
# [2] = Table IV, species from U.S. Pat. No. 6,878,691 and US 2004/0053861, read-out: minimum inhibition concentration (MIC) S. pneumoniae 700906
# [3] = Table IV, species from U.S. Pat. No. 6,878,691 and US 2004/0053861, read-out: minimum inhibition concentration (MIC) H. influenzae 33929
# [4] = Table IV, species from U.S. Pat. No. 6,878,691 and US 2004/0053861, read-out: minimum inhibition concentration (MIC) S. pneumoniae 7701
# [5] = Table IV, species from U.S. Pat. No. 6,878,691 and US 2004/0053861, read-out: minimum inhibition concentration (MIC) S. aureus 27660
# [6] = Table IV, species from U.S. Pat. No. 6,878,691 and US 2004/0053861, read-out: minimum inhibition concentration (MIC) S. aureus 29213
# [7] = Table IV, species from U.S. Pat. No. 6,878,691 and US 2004/0053861, read-out: minimum inhibition concentration (MIC) S. pyogenes 2912
# [8] = Table IV, species from U.S. Pat. No. 6,878,691 and US 2004/0053861, read-out: minimum inhibition concentration (MIC) S. pyogenes 1323
# [9] = Table V, compounds of this invention, read-out: minimum inhibition concentration S. aureus 33591
# [10] = Table V, compounds of this invention, read-out: minimum inhibition concentration S. pneumoniae 700906
# [11] = Table V, compounds of this invention, read-out: minimum inhibition concentration H. influenzae 33929
# [12] = Table V, compounds of this invention, read-out: minimum inhibition concentration S. pneumoniae 7701
# [13] = Table V, compounds of this invention, read-out: minimum inhibition concentration S. aureus 27660
# [14] = Table V, compounds of this invention, read-out: minimum inhibition concentration S. aureus 29213
# [15] = Table V, compounds of this invention, read-out: minimum inhibition concentration S. pyogenes 2912
# [16] = Table V, compounds of this invention, read-out: minimum inhibition concentration S. pyogenes 1323
MIC (S. aureus 33591; [1]) [µg/mL],MIC (S. pneumoniae 700906; [2]) [µg/mL],MIC (H. influenzae 33929; [3]) [µg/mL],MIC (S. pneumoniae 7701; [4]) [µg/mL],MIC (S. aureus 27660; [5]) [µg/mL],MIC (S. aureus 29213; [6]) [µg/mL],MIC (S. pyogenes 2912; [7]) [µg/mL],MIC (S. pyogenes 1323; [8]) [µg/mL],MIC (S. aureus 33591; [9]) [µg/mL],MIC (S. pneumoniae 700906; [10]) [µg/mL],MIC (H. influenzae 33929; [11]) [µg/mL],MIC (S. pneumoniae 7701; [12]) [µg/mL],MIC (S. aureus 27660; [13]) [µg/mL],MIC (S. aureus 29213; [14]) [µg/mL],MIC (S. pyogenes 2912; [15]) [µg/mL],MIC (S. pyogenes 1323; [16]) [µg/mL],Structure (SMILES)
> 64,0.13,8,2,0.25,0.25,32,16,,,,,,,,,CC[C@H]1OC(=O)[C@H](C)C(=O)[C@H](C)[C@@H](O[C@@H]2O[C@H](C)C[C@H](N(C)C)[C@H]2O)[C@@]2(C)C[C@@H](C)/C(=N\C(C)=O)[C@H](C)[C@@H](OC/C(=N\OCc3cn4ccncc4n3)CO2)[C@]1(C)O [Compound A3]
,,,,,,,,32,0.25,2,0.125,≤ 0.06,≤ 0.06,4,0.5,CC[C@H]1OC(=O)[C@H](C)C(=O)[C@H](C)[C@@H](O[C@@H]2O[C@H](C)C[C@H](N(C)C)[C@H]2O)[C@@]2(C)C[C@@H](C)C(=O)[C@H](C)[C@@H](OC/C(=N\OCc3ccc4oc(N)nc4c3)CO2)[C@]1(C)O [Compound B3]
,,,,,,,,32,0.125,4,0.125,0.125,0.125,1,0.5,CC[C@H]1OC(=O)[C@H](C)C(=O)[C@H](C)[C@@H](O[C@@H]2O[C@H](C)C[C@H](N(C)C)[C@H]2O)[C@@]2(C)C[C@@H](C)/C(=N\C(C)=O)[C@H](C)[C@@H](OC/C(=N\OCc3ccc4oc(N)nc4c3)CO2)[C@]1(C)O [Compound B4]
,,,,,,,,> 64,1,2,≤ 0.06,≤ 0.06,≤ 0.06,4,0.25,CC[C@H]1OC(=O)[C@H](C)C(=O)[C@H](C)[C@@H](O[C@@H]2O[C@H](C)C[C@H](N(C)C)[C@H]2O)[C@@]2(C)C[C@@H](C)C(=O)[C@H](C)[C@@H](OC/C(=N\OCc3ccc4nc(N)sc4c3)CO2)[C@]1(C)O [Compound B1]
> 64,,> 64,2,,,> 64,64,,,,,,,,,CC[C@H]1OC(=O)[C@H](C)[C@@H](O)[C@H](C)[C@@H](O[C@@H]2O[C@H](C)C[C@H](N(C)C)[C@H]2O)[C@@]2(C)C[C@@H](C)C(=N)[C@H](C)[C@@H](OC/C(=N\OCc3ccccc3)CO2)[C@]1(C)O [Compound A5]
,,> 64,8,,,64,64,,,,,,,,,CC[C@H]1OC(=O)[C@H](C)[C@@H](OC2C[C@@](C)(OC)[C@@H](OC(C)=O)[C@H](C)O2)[C@H](C)[C@@H](O[C@@H]2O[C@H](C)C[C@H](N(C)C)[C@H]2O)[C@@]2(C)C[C@@H](C)C(=O)[C@H](C)[C@@H](OCC(=Cc3cnc4ccccc4c3)CO2)[C@]1(C)O (stereo partly shown) [Compound A4]
16,8,> 64,1,1,1,8,2,,,,,,,,,CC[C@H]1OC(=O)[C@H](C)[C@@H](OC(=O)Cc2cccnc2)[C@H](C)[C@@H](O[C@@H]2O[C@H](C)C[C@H](N(C)C)[C@H]2O)[C@@]2(C)C[C@@H](C)/C(=N\C(C)=O)[C@H](C)[C@@H](OC/C(=C\C=C\c3ccccc3)CO2)[C@]1(C)O [Compound A6]
> 64,0.25,16,0.5,0.25,0.5,16,1,,,,,,,,,CC[C@H]1OC(=O)[C@H](C)C(=O)[C@H](C)[C@@H](O[C@@H]2O[C@H](C)C[C@H](N(C)C)[C@H]2O)[C@@]2(C)C[C@@H](C)/C(=N\C(C)=O)[C@H](C)[C@@H](OC/C(=N\OCc3ccc4nccnc4c3)CO2)[C@]1(C)O [Compound A2]
,,,,,,,,> 64,0.5,2,0.125,≤ 0.06,0.125,2,0.5,CC[C@H]1OC(=O)[C@@](C)(F)C(=O)[C@H](C)[C@@H](O[C@@H]2O[C@H](C)C[C@H](N(C)C)[C@H]2O)[C@@]2(C)C[C@@H](C)/C(=N\C(C)=O)[C@H](C)[C@@H](OC/C(=N\OCc3ccc4onc(N)c4c3)CO2)[C@]1(C)O [Compound B2]
> 64,0.25,8,0.5,0.13,0.25,8,0.5,,,,,,,,,CC[C@H]1OC(=O)[C@H](C)C(=O)[C@H](C)[C@@H](O[C@@H]2O[C@H](C)C[C@H](N(C)C)[C@H]2O)[C@@]2(C)C[C@@H](C)/C(=N\C(C)=O)[C@H](C)[C@@H](OC/C(=N\OCc3nccc4ccccc34)CO2)[C@]1(C)O [Compound A1]
